How the values were obtained:
Format in all cases: biochemical
OtsA = target: T1, OtsA (Escherichia coli, UniProt P31677); assay: ESI-MS of product; settings: UDP-glucose and glucose 6-phosphate as substrates; 5 mM MgCl2, 50 mM Tris-HCl pH 7.5
T1 sequence (P31677 1-474): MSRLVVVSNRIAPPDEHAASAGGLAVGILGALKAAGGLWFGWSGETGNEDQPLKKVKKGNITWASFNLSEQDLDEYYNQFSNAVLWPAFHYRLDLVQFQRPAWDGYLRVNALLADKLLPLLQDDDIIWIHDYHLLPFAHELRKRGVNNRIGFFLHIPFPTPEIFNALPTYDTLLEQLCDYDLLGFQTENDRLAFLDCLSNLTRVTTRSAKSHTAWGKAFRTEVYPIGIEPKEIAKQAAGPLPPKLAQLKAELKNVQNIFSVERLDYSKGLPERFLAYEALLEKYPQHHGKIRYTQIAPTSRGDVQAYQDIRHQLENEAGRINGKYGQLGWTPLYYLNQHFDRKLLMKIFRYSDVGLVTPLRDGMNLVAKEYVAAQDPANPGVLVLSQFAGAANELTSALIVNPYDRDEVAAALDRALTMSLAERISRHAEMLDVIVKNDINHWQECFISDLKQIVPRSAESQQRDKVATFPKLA

VldH = target: T2, VldH (Streptomyces hygroscopicus, UniProt Q15JF8); assay: ESI-MS of product; settings: 5 mM substrate, 10 mM MgCl2, 50 mM Tris-HCl pH 7.5, 1.5 h
T2 sequence (Q15JF8 1-213): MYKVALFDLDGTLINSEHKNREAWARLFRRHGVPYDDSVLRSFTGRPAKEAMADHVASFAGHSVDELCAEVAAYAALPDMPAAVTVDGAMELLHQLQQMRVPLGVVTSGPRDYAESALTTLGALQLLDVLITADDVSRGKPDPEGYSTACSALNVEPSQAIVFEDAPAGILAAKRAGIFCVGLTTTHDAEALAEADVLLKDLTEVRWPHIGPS

VldB = target: T3, VldB (Streptomyces hygroscopicus, UniProt Q15JG4); assay: HPLC and ESI-MS of product; settings: valienol 1-phosphate as co-substrate; 1 mM Mg2+
T3 sequence (Q15JG4 1-373): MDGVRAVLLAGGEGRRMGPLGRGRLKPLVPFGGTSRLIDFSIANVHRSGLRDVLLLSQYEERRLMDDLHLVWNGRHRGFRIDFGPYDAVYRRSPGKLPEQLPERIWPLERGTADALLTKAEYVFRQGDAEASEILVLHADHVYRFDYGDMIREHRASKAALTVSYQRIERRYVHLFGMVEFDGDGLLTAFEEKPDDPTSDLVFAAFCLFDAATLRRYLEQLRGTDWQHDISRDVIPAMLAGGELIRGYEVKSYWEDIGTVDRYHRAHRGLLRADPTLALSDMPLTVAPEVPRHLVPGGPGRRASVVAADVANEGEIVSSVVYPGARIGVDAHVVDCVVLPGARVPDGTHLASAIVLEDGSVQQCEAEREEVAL

SMILES	ESI-MS of product (OtsA)	ESI-MS of product (VldH)	HPLC and ESI-MS of product (VldB)
O=P(O)(O)OC[C@H]1O[C@H](O[C@H]2O[C@H](CO)[C@@H](O)[C@H](O)[C@H]2O)[C@H](O)[C@@H](O)[C@@H]1O [trehalose 6-phosphate]	the recombinant OtsA can catalyze the formation of trehalose 6-phosphate	VldH was able to catalyze dephosphorylation of trehalose 6-phosphate to give trehalose	
Nc1nc2c(ncn2[C@@H]2O[C@H](COP(=O)(O)OP(=O)(O)OP(=O)(O)O)[C@@H](O)[C@H]2O)c(=O)[nH]1 [GTP]			effectively catalyzes the conversion of valienol 1-phosphate to GDP-valienol

— publication PMC3162038 (Journal of the American Chemical Society, 2011)
